# From patent US7525011B2, “Transgenic cancer models in fish” (Dana-Farber Cancer Institute, priority 2002, dated 2009)
# Key:
# [1] = tested on: zebrafish embryos; experiment: 96-well plate embryo survival assay; format: in vivo; details: 1% DMSO in egg water, 5- to 8-day old embryos
# Description: Next it was determined if 5- to 8-day old zebrafish embryos are able to survive in 96 well plates, and what […] of water was necessary to attain high levels of survival. Six-day old zebrafish embryos were allocated to wells in a 96 well plate. Three to four embryos were grown in 250, 150, and 100 μl of egg water with and without 1% DMSO and analyzed daily for mortality.
# [2] = tested on: MYC-ER; details: in the presence of tamoxifen; by 300 days of development; CD2-MYC-ER mouse models; cited from earlier work
smiles,measurement,setting,value
C[S+](C)[O-] [DMSO],effect on embryo survival,[1],no significant effect
CC/C(=C(\c1ccccc1)c1ccc(OCCN(C)C)cc1)c1ccccc1 [tamoxifen],offspring developing tumors,[2],62%
